One series has as its target M channel (=KCNQ2+KCNQ3) (Homo sapiens, UniProt O43525+O43526). To be noted: literature, Wang et al.; cited from earlier work.
For another series, the target named is KCNQ1 channel (Homo sapiens, UniProt P51787). To be noted: literature, Wang et al.; cited from earlier work.
A further series deals with T1, Kv4.3 (Homo sapiens, UniProt Q9UK17).
T1 sequence (Q9UK17 1-655): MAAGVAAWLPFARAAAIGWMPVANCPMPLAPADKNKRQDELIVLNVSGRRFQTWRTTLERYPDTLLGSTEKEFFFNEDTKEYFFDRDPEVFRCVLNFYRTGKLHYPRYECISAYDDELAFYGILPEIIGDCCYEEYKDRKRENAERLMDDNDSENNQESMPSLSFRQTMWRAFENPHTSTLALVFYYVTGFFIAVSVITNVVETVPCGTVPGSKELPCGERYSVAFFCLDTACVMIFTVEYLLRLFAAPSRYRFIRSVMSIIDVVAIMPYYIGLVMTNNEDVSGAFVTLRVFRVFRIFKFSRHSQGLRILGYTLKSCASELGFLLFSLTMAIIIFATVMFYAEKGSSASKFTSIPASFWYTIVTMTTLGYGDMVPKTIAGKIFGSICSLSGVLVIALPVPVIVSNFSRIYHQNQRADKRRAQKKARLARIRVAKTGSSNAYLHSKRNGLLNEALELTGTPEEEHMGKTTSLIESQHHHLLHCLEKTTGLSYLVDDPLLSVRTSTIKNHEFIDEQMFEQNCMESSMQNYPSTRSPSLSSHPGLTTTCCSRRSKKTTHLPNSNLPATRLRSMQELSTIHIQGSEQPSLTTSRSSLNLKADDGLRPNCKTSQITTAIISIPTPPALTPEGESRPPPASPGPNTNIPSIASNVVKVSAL
Conditions: literature, Wang et al.; cited from earlier work.

A further series deals with T2, eag1 (Homo sapiens, UniProt O95259).
T2 sequence (O95259 1-989): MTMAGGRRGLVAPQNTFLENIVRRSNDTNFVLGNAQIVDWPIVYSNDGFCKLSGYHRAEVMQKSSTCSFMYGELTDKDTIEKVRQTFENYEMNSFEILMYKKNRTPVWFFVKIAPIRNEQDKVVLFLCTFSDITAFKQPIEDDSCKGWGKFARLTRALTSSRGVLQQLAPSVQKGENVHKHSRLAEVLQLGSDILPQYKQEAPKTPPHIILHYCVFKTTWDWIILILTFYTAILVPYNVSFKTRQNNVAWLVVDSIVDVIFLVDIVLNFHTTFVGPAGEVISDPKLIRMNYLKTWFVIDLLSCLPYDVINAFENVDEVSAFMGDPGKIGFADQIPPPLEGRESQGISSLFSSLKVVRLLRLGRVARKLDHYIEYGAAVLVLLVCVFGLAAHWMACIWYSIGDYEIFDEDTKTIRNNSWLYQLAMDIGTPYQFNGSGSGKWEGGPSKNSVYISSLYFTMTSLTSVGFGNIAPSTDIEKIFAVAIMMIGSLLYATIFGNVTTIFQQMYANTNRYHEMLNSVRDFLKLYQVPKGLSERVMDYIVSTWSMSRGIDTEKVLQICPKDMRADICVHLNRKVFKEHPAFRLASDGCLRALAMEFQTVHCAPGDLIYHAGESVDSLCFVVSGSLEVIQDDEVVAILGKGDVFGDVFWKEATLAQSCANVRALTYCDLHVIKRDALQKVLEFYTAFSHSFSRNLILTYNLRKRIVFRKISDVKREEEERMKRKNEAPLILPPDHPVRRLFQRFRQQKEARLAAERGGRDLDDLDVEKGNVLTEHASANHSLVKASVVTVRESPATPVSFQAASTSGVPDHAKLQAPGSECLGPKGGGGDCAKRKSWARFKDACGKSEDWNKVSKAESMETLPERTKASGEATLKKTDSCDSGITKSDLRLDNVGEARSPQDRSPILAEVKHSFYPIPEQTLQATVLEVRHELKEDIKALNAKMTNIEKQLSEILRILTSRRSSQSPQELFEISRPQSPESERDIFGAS
Conditions: literature, Wang et al.; cited from earlier work.

The next series addresses erg1 (Homo sapiens, UniProt Q12809). To be noted: literature, Wang et al.; cited from earlier work.
For the next series, the target named is T3, erg3 (Homo sapiens, UniProt Q9NS40).
T3 sequence (Q9NS40 1-1196): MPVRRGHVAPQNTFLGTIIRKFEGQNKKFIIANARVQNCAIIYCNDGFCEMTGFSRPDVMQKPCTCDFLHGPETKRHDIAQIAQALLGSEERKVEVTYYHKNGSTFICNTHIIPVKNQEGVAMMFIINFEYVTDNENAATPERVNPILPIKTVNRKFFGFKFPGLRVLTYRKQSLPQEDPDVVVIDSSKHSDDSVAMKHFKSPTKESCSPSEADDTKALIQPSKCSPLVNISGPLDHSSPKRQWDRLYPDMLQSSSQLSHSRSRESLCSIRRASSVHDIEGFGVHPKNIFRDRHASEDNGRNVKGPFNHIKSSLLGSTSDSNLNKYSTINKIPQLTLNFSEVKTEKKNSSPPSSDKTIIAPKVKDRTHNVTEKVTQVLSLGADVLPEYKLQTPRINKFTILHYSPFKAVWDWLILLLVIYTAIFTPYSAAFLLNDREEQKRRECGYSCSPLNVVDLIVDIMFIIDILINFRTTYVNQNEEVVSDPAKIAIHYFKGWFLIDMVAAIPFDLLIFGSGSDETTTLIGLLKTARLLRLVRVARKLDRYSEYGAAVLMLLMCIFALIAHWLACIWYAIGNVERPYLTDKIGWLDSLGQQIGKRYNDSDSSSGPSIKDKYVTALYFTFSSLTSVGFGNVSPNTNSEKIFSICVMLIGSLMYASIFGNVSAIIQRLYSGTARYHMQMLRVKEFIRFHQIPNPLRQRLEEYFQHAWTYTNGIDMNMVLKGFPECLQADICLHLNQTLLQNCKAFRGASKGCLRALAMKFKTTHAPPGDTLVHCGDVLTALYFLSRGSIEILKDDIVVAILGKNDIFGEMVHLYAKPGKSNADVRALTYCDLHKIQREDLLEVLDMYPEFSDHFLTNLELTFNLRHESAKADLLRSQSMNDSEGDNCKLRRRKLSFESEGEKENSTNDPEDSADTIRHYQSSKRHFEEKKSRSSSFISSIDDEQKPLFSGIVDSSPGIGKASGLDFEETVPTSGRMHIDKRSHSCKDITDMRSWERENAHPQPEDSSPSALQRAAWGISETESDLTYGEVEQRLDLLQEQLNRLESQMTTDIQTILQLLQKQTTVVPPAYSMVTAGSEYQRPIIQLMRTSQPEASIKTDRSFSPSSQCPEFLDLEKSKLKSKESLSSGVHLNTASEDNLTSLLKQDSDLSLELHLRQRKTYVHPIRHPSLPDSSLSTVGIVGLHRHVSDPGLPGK
To be noted: literature, Wang et al.; cited from earlier work.

The subject of the next series is elk1. Conditions: literature, Wang et al.; cited from earlier work.
The target in the next series is Kv1.2 (Homo sapiens, UniProt P16389). To be noted: literature, Wang et al.; cited from earlier work.
The target in the next series is T4, r-erg1 (Rattus norvegicus, UniProt O08962).
T4 construct: expressed in transfected cells; host or cells: CHO cells (liposome cDNA transfection)
T4 sequence (O08962 1-1163): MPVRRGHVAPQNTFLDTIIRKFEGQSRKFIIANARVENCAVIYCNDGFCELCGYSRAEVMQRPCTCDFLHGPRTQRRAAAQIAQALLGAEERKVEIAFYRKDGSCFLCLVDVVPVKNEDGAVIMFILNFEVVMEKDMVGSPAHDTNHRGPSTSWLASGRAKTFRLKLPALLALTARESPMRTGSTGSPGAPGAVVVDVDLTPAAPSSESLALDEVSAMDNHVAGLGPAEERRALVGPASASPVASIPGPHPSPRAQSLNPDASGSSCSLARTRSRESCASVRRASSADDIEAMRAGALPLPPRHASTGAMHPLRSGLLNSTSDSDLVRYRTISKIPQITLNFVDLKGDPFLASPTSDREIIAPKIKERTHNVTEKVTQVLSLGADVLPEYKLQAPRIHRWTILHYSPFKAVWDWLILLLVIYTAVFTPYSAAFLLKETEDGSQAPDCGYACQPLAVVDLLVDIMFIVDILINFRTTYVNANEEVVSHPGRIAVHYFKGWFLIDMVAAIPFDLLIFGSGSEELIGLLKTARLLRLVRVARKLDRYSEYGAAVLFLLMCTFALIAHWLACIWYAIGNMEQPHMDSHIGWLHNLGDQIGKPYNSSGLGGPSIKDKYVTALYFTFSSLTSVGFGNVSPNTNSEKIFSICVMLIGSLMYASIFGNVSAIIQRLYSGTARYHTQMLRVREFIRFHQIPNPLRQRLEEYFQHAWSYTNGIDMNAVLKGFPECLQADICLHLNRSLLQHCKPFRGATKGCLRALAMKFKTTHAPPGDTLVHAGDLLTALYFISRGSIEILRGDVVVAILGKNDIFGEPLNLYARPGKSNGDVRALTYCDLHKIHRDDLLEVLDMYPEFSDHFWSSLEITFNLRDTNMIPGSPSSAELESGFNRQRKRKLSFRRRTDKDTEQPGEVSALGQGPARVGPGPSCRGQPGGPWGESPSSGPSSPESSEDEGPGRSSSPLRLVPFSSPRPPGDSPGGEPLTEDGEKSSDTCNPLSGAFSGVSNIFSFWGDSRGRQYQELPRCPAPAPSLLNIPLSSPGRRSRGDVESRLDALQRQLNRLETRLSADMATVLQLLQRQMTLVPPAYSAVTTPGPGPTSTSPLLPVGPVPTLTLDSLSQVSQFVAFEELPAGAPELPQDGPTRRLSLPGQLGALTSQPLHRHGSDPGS
Description: Effect of retigabine on cloned potassium channels, patch clamp. Format: cell-based. To be noted: r-erg1, CHO cells. On the procedure: For the experiments with xenopus oocytes, the experimental amounts known to be successful for transfections i.e. 500 pg to 37 ng, of hereditary information (cRNA) for the channel to be investigated, which is known from the literature, present as clone and replicated by means of a polymerase chain reaction, was applied by pressure injection into the egg cells. After this treatment, the oocytes were placed in a nutrient medium and kept alive. After one week, the egg cells were brought individually into a recording chamber and, using the two-electrode voltage clamp method, investigated electrophysiologically. For this purpose, the egg cells, starting out from a holding potential of −80 mV, were hyperpolarized and depolarized for, in each case, 2 seconds, in 10 mV steps to different membrane potentials between −130 and +30 mV and the resulting membrane current was measured. These experiments were carried out in the presence of a control solution as well as of 1, 10 and 100 μM of retigabine and the current voltage curves obtained were compared. […] In addition, in accordance with a method already described (Rundfeldt, 1999b), retigabine was added at a concentration of 10 μM to cells, which were slightly depolarized (−60 or −50 mV), and the current induced thereby was quantified. The latter method was employed in order to quantify the currents shown in the Table and induced by retigabine. […]

The values that follow come from patent publication US6472165B1, “Modulatory binding site in potassium channels for screening and finding new active ingredients” (Arzneimittelwerk Dresden GmbH, priority 1999, dated 2002).

Chain of erg1 (Q12809 whole entry): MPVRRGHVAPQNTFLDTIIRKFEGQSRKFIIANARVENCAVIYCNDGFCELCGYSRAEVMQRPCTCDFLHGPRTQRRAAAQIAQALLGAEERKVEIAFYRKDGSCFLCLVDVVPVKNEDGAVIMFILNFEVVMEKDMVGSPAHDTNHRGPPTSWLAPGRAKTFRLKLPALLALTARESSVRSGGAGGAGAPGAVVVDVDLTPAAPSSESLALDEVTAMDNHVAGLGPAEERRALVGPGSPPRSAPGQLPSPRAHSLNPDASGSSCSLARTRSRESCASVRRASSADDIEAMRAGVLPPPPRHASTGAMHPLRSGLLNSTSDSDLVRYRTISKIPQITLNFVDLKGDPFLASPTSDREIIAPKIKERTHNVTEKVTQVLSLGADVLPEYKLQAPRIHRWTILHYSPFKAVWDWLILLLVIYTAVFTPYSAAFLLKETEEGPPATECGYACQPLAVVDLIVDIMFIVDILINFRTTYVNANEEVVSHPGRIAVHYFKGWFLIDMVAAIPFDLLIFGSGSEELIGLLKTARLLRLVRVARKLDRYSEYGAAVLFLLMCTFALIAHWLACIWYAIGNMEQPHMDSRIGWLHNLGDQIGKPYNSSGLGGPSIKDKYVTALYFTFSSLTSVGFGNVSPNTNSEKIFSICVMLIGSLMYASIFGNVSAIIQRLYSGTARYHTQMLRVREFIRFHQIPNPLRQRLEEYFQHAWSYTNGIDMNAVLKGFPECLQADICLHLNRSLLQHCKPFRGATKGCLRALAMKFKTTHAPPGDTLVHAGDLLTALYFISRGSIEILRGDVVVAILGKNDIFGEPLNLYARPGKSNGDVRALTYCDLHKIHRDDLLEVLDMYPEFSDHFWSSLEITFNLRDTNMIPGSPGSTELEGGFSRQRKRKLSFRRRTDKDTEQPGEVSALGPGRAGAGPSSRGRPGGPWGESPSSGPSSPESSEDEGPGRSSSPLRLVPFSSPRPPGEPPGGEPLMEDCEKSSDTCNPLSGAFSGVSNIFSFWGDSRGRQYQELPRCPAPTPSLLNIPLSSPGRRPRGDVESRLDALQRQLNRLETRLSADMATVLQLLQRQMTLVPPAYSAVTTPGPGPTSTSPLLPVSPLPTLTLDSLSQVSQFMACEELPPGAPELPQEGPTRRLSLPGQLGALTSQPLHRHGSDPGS
Chain of Kv1.2 (P16389 whole entry): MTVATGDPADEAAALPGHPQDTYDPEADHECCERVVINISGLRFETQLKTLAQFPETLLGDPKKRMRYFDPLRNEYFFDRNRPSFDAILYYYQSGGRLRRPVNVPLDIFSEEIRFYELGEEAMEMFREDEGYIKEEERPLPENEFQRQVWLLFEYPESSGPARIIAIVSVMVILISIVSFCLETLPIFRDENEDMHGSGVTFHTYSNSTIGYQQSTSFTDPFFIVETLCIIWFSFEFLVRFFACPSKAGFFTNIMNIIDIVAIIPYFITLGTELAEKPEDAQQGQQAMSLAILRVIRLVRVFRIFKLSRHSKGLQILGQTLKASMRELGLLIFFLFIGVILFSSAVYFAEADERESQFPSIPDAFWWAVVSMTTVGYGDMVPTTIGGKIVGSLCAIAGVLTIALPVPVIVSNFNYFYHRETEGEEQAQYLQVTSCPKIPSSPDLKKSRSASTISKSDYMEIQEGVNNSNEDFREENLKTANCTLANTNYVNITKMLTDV

Turning to `O=C1c2ccccc2C(Cc2ccncc2)(Cc2ccncc2)c2ccccc21` [XE991], the “Effect on the M channel” value on M channel (=KCNQ2+KCNQ3) is recorded as “block”. Also, the “Effect on KCNQ1, with affinity similar to that for the M channel” value at KCNQ1 channel is “inhibits”. Moreover, the “Effect on Kv4.3, with affinity similar to that for the M channel” value at Kv4.3 is on record as “inhibits”.
In the case of `O=C1N(c2ccccc2)c2ccccc2C1(Cc1ccncc1)Cc1ccncc1` [linopirdine], the “Effect on the M channel” value on M channel (=KCNQ2+KCNQ3) was “blocks”. The “Effect on KCNQ1, with affinity similar to that for the M channel” value at KCNQ1 channel is “blocked”. Further, the “Effect on Kv4.3, with affinity similar to that for the M channel” value on Kv4.3 is “blocked”. For the same compound, the “Effect on eag1, with affinity similar to that for the M channel” value on eag1 is on record as “blocked”. Besides, the “Effect on erg1, with affinity similar to that for the M channel” value on erg1 is on record as “blocked”. At erg3, the “Effect on erg3, with affinity similar to that for the M channel” value is given as “blocked”. Also, the “Effect on elk1, with affinity similar to that for the M channel” value with elk1 is “blocked”. Further, the “Effect on Kv1.2, with affinity similar to that for the M channel” value on Kv1.2 was “blocked”.
`CCOC(=O)Nc1ccc(NCc2ccc(F)cc2)cc1N` [retigabine, 2-amino-4-(4-fluorobenzylamino)-1-ethoxycarbonyl-aminobenzene]: on r-erg1, the “Effect of 10 μM of Retigabine” value was “No effect”.
